Data as given in patent publication US20200352976A1, “HYPOMETHYLATING AGENTS FOR USE IN TREATMENT OF CANCER” (Otsuka Pharmaceutical Co., Ltd, priority 2019, published 2020).

What was measured:
Format in all cases: in vivo, human
[1] = test system: LINE-1 repeats (global DNA methylation); assay: LINE-1 methylation assay on whole blood (global DNA methylation), Phase 1/2 trial
Description: Whole-blood samples were collected immediately before treatment, once a week during the first treatment cycle, and then on day 1 of subsequent cycles for demethylation analysis. Global DNA methylation was measured by the long interspersed nuclear element-1 (LINE-1) methylation assay. The LINE-1 assay measures methylation levels of LINE-1 repeats, which serve as a surrogate for global DNA methylation levels. Results of LINE-1 assays were used to assess and changes in methylation from baseline.
Activity and safety endpoints were evaluated for all patients who received at least one dose of study drug, and no patients who received treatment were excluded from the analyses. […] Time to response and duration of response were summarized in days using descriptive statistics. Overall survival was analyzed using the Kaplan-Meier method, with survival time censored on the last date of contact if the patient was alive or lost to follow-up. Blood and platelet transfusion independence were summarized descriptively in the subset of patients who were transfusion-dependent at baseline. Change from baseline LINE-1 methylation and maximum LINE-1 demethylation were also summarized descriptively, with maximum LINE-1 demethylation defined as the largest percent decrease from baseline in methylation values by patient between days 8 and 22 of the first treatment cycle.

[2] = test system: acute myeloid leukemia (TN and relapsed/refractory AML); assay: Phase 2 study in AML (TN and r/r): landmark response and survival analyses
Description: In a Phase 2 study of 206 AML patients, both treatment naïve (TN), and relapsed/refractory (r/r), patients were treated with Compound I-1 using different doses and schedules. The patients were randomized either to a 5- or 10-day dosing regimen. The patients who were part of the 10-day regimen were given Compound I-1 at 60 mg/m^2/day for 1-4 cycles, then were given the 5-day regimen. The patients who were part of the 5-day regimen were randomized either to the biologically effective dose group (60 mg/m^2 daily) or the highest well tolerated dose group (90 mg/m^2 daily).
Landmark response (CR, CRi, or CRp based on 2003 IWG criteria, grouped together as composite CR or CRc), and overall survival (OS) analyses for patients alive at or beyond month 3 and month 5 (time of planned start of cycle 4 and cycle 6, respectively) were conducted. […] The results in responding and non-responding patients were also compared to see whether survival benefit was restricted to responding patients only.

[3] = test system: relapsed/refractory (r/r) AML; assay: Phase 2 study in relapsed/refractory AML: response, duration of response, survival; conditions: for CR response rate, % / CRc (CR + CRp + CRi) response rate, % / CRi response rate, % / CRp response rate, % / CRc, %: r/r AML; for CRc, %: all regimens
Description: A Phase 2 study of Compound I-1 using different regimens and doses (randomized 5-day regimen cohorts of 60 mg/m^2/d vs 90 mg/m^2/d SC) and a cohort of 10-day regimen in the first 1-4 cycles at 60 mg/m^2/d followed by subsequent cycles of 5-day regimen) was conducted as described above. Response and duration of response were assessed using IWG 2003 criteria: Complete Response (CR), CR with incomplete platelet recovery (CRp), and CR with incomplete count recovery (CRi). CR+CRp+CRi was defined as composite CR (CRc). Overall survival (OS) was assessed using the Kaplan-Meier (KM) method. Response status for each dose/regimen cohort and the overall treated population were assessed with analyses of duration of response and long-term survival.

[4] = 5 Day regimen (60 and 90 mg/m^2), n = 50
[5] = 10 Day regimen (60 mg/m^2), n = 53

## Nc1ncn([C@H]2CC(OP(=O)(O)OC[C@H]3O[C@@H](n4cnc5c(=O)[nH]c(N)nc54)CC3O)[C@@H](CO)O2)c(=O)n1 (stereo partly shown) [Compound I-1]
[1]; 60 mg/m^2
  Mean maximum LINE-1 demethylation: 23.9%
[1]; 90 mg/m^2
  Mean maximum LINE-1 demethylation: 28.2%
[1]; relapsed or refractory
  Mean maximum LINE-1 demethylation: 28.9%
[1]; returned to pretreatment levels by day 28
  Time of maximum extent of global DNA demethylation: ~8 days
[1]; treatment-naïve
  Mean maximum LINE-1 demethylation: 28.6%
[1]; with objective treatment response
  Mean maximum LINE-1 demethylation: 28.1%
[1]; without objective treatment response
  Mean maximum LINE-1 demethylation: 29.4%
[2]; landmark, at least 4 cycles
  Median OS: 13.7 m
[2]; landmark, at least 4 cycles (97 patients)
  CRc rate: 62%
[2]; landmark, at least 4 cycles vs not
  OS HR: 0.53
[2]; landmark, at least 6 cycles
  Median OS: 19.9 m
[2]; landmark, at least 6 cycles (51 patients)
  CRc rate: 82.4%
[2]; landmark, at least 6 cycles vs not
  OS HR: 0.42
[2]; landmark, fewer than 4 cycles
  Median OS: 6.1 m
[2]; landmark, fewer than 4 cycles (64 patients)
  CRc rate: 25%
[2]; landmark, fewer than 6 cycles
  Median OS: 8.8 m
[2]; landmark, fewer than 6 cycles (82 patients)
  CRc rate: 35.4%
[2]; no CRc, at least 4 cycles
  Median OS: 8 m
[2]; no CRc, at least 4 cycles vs not
  OS HR: 0.63
[2]; no CRc, at least 6 cycles
  Median OS: 12.9 m
[2]; no CRc, at least 6 cycles vs not
  OS HR: 0.40
[2]; no CRc, fewer than 4 cycles
  Median OS: 5.4 m
[2]; no CRc, fewer than 6 cycles
  Median OS: 8 m
[3]; 5-day regimen
  CR Rate: 8%
  CRc rate: 16%
[3]; 10-day regimen
  CR Rate: 19%
  CRc rate: 30%
[3]; CR
  2-year survival rate: 57%
[3]; CRc patients receiving HCT
  2-year survival rate: 50%
[3]; CRc patients who did not undergo HCT
  2-year survival rate: 60%
[3]; CRp/CRi
  2-year survival rate: 50%
[3]; early relapse (<6 months from prior treatment)
  CRc: 22%
[3]; in vivo
  CR Composite (CR + CRp + CRi) Duration of Response, median (range): 7.8 (0.5-30) Months
  Complete Response (CR) Duration of Response, median (range): 7 (1-29.5) Months
  Post treatment HCT in responders: 58%
[3]; of 19 patients who had prior HCT
  Achieved CRc: 5 patients
[3]; patients who achieved CRc (either CR or CRp/CRi)
  Median OS: has not been reached
[3]; patients who relapsed after prior HCT (19 patients)
  CRc: 26%
[3]; patients with poor risk cytogenetics
  CRc: 19%
[3]; [4]
  CR response rate, %: (6%)
  CRc (CR + CRp + CRi) response rate, %: (16%)
  CRi response rate, %: (8%)
  CRp response rate, %: (2%)
[3]; [5]
  CR response rate, %: (19%)
  CRc (CR + CRp + CRi) response rate, %: (30%)
  CRi response rate, %: (4%)
  CRp response rate, %: (7%)
[3]; subgroup Age (y) <65 (N 63)
  CRc, %: (19%)
[3]; subgroup Age (y) >65 (N 40)
  CRc, %: (30%)
[3]; subgroup Cytogenetics Adverse (N 42)
  CRc, %: (19%)
[3]; subgroup Cytogenetics Diploid (N 21)
  CRc, %: (19%)
[3]; subgroup Cytogenetics Others (N 40)
  CRc, %: (30%)
[3]; subgroup ECOG PS 0-1 (N 89)
  CRc, %: (26%)
[3]; subgroup ECOG PS 2 (N 12)
  CRc, %: (7%)
[3]; subgroup Prior HCT No (N 84)
  CRc, %: (23%)
[3]; subgroup Prior HCT Yes (N 19)
  CRc, %: (26%)
[3]; subgroup Response to Induction CR (N 55)
  CRc, %: (15%)
[3]; subgroup Response to Induction Refractory (N 48)
  CRc, %: (25%)
[3]; subgroup Time From Last Therapy <6 months (N 82)
  CRc, %: (22%)
[3]; subgroup Time From Last Therapy >6 months (N 20)
  CRc, %: (30%)
[3]; refractory patients
  CRc: 31%
